ChEMBL document CHEMBL3045679, “Microwave-assisted synthesis and pharmacological studies of novel 5-deazaalloxazine derivatives” (2012)
≈ marks a conversion by molar mass, not a printed value. Calls of active or inactive are those of the source. The rule behind the calls is not given here.

Legend:
Lipomyces lipofer [1] = assay: Antifungal activity against Lipomyces lipofer NCIM 3252 at 1000 ug/disk after 72 hr by disk diffusion method; format: functional; conditions: NCIM 3252, 72 h, read-out: DIZ
Lipomyces lipofer [2] = assay: Antifungal activity against Lipomyces lipofer NCIM 3252 at 500 ug/disk after 72 hr by disk diffusion method; format: functional; conditions: NCIM 3252, 72 h, read-out: DIZ
Candida albicans [3] = assay: Antifungal activity against Candida albicans NCIM 3471 at 1000 ug/disk after 72 hr by disk diffusion method; format: functional; conditions: NCIM 3471, 72 h, read-out: DIZ
Candida albicans [4] = assay: Antifungal activity against Candida albicans NCIM 3471 at 500 ug/disk after 72 hr by disk diffusion method; format: functional; conditions: NCIM 3471, 72 h, read-out: DIZ
Rhodotorula mucilaginosa [5] = assay: Antifungal activity against Rhodotorula mucilaginosa NCIM 3174 at 1000 ug/disk after 72 hr by disk diffusion method; format: functional; conditions: NCIM 3174, 72 h, read-out: DIZ
Rhodotorula mucilaginosa [6] = assay: Antifungal activity against Rhodotorula mucilaginosa NCIM 3174 at 500 ug/disk after 72 hr by disk diffusion method; format: functional; conditions: NCIM 3174, 72 h, read-out: DIZ
Aspergillus flavus [7] = assay: Antifungal activity against Aspergillus flavus NCIM 535 at 1000 ug/disk after 72 hr by disk diffusion method; format: functional; conditions: NCIM 535, 72 h, read-out: DIZ
Aspergillus flavus [8] = assay: Antifungal activity against Aspergillus flavus NCIM 535 at 500 ug/disk after 72 hr by disk diffusion method; format: functional; conditions: NCIM 535, 72 h, read-out: DIZ
Aspergillus niger [9] = assay: Antifungal activity against Aspergillus niger NCIM 1196 at 1000 ug/disk after 72 hr by disk diffusion method; format: functional; conditions: NCIM 1196, 72 h, read-out: DIZ
Aspergillus niger [10] = assay: Antifungal activity against Aspergillus niger NCIM 1196 at 500 ug/disk after 72 hr by disk diffusion method; format: functional
Penicillium chrysogenum [11] = assay: Antifungal activity against Penicillium chrysogenum NCIM 707 at 1000 ug/disk after 72 hr by disk diffusion method; format: functional; conditions: NCIM 707, 72 h, read-out: DIZ
Penicillium chrysogenum [12] = assay: Antifungal activity against Penicillium chrysogenum NCIM 707 at 500 ug/disk after 72 hr by disk diffusion method; format: functional; conditions: NCIM 707, 72 h, read-out: DIZ
Streptomyces albus [13] = assay: Antibacterial activity against Streptomyces albus NCIM 2178 at 1000 ug/disk after 24 hr by disk diffusion method; format: functional; conditions: NCIM 2178, 24 h, read-out: DIZ
Streptomyces albus [14] = assay: Antibacterial activity against Streptomyces albus NCIM 2178 at 500 ug/disk after 24 hr by disk diffusion method; format: functional, organism-based
Bacillus cereus [15] = assay: Antibacterial activity against Bacillus cereus NCIM 2155 at 1000 ug/disk after 24 hr by disk diffusion method; format: functional; conditions: NCIM 2155, 24 h, read-out: DIZ
Bacillus cereus [16] = assay: Antibacterial activity against Bacillus cereus NCIM 2155 at 500 ug/disk after 24 hr by disk diffusion method; format: functional; conditions: NCIM 2155, 24 h, read-out: DIZ
Bacillus subtilis [17] = assay: Antibacterial activity against Bacillus subtilis NCIM 2063 at 1000 ug/disk after 24 hr by disk diffusion method; format: functional; conditions: NCIM 2063, 24 h, read-out: DIZ
Bacillus subtilis [18] = assay: Antibacterial activity against Bacillus subtilis NCIM 2063 at 500 ug/disk after 24 hr by disk diffusion method; format: functional; conditions: NCIM 2063, 24 h, read-out: DIZ
Klebsiella aerogenes [19] = assay: Antibacterial activity against Enterobacter aerogenes NCIM 2239 at 1000 ug/disk after 24 hr by disk diffusion method; format: functional; conditions: NCIM 2239, 24 h, read-out: DIZ
Klebsiella aerogenes [20] = assay: Antibacterial activity against Enterobacter aerogenes NCIM 2239 at 500 ug/disk after 24 hr by disk diffusion method; format: functional; conditions: NCIM 2239, 24 h, read-out: DIZ
Pseudomonas aeruginosa [21] = assay: Antibacterial activity against Pseudomonas aeruginosa NCIM 2200 at 1000 ug/disk after 24 hr by disk diffusion method; format: functional; conditions: NCIM 2200, 24 h, read-out: DIZ
Pseudomonas aeruginosa [22] = assay: Antibacterial activity against Pseudomonas aeruginosa NCIM 2200 at 500 ug/disk after 24 hr by disk diffusion method; format: functional; conditions: NCIM 2200, 24 h, read-out: DIZ
Escherichia coli [23] = assay: Antibacterial activity against Escherichia coli NCIM 2065 at 1000 ug/disk after 24 hr by disk diffusion method; format: functional; conditions: NCIM 2065, 24 h, read-out: DIZ
Escherichia coli [24] = assay: Antibacterial activity against Escherichia coli NCIM 2065 at 500 ug/disk after 24 hr by disk diffusion method; format: functional
Bacillus subtilis [25] = assay: Antibacterial activity against Bacillus subtilis NCIM 2063 after 24 hr by broth dilution assay; format: functional; conditions: NCIM 2063, 24 h
Klebsiella aerogenes [26] = assay: Antibacterial activity against Enterobacter aerogenes NCIM 2239 after 24 hr by broth dilution assay; format: functional; conditions: NCIM 2239, 24 h
Pseudomonas aeruginosa [27] = assay: Antibacterial activity against Pseudomonas aeruginosa NCIM 2200 after 24 hr by broth dilution assay; format: functional; conditions: NCIM 2200, 24 h
Escherichia coli [28] = assay: Antibacterial activity against Escherichia coli NCIM 2065 after 24 hr by broth dilution assay; format: functional; conditions: NCIM 2065, 24 h
Lipomyces lipofer [29] = assay: Antifungal activity against Lipomyces lipofer NCIM 3252 after 72 hr by broth dilution assay; format: functional; conditions: NCIM 3252, 72 h
Candida albicans [30] = assay: Antifungal activity against Candida albicans NCIM 3471 after 72 hr by broth dilution assay; format: functional; conditions: NCIM 3471, 72 h
Rhodotorula mucilaginosa [31] = assay: Antifungal activity against Rhodotorula mucilaginosa NCIM 3174 after 72 hr by broth dilution assay; format: functional; conditions: NCIM 3174, 72 h
Aspergillus flavus [32] = assay: Antifungal activity against Aspergillus flavus NCIM 535 after 72 hr by broth dilution assay; format: functional; conditions: NCIM 535, 72 h
Aspergillus niger [33] = assay: Antifungal activity against Aspergillus niger NCIM 1196 after 72 hr by broth dilution assay; format: functional; conditions: NCIM 1196, 72 h
Penicillium chrysogenum [34] = assay: Antifungal activity against Penicillium chrysogenum NCIM 707 after 72 hr by broth dilution assay; format: functional; conditions: NCIM 707, 72 h
Streptomyces albus [35] = assay: Antibacterial activity against Streptomyces albus NCIM 2178 after 24 hr by broth dilution assay; format: functional; conditions: NCIM 2178, 24 h
Bacillus cereus [36] = assay: Antibacterial activity against Bacillus cereus NCIM 2155 after 24 hr by broth dilution assay; format: functional; conditions: NCIM 2155, 24 h

Row | SMILES | zone of inhibition at 1000 µg/disc (Lipomyces lipofer [1]) [mm] | zone of inhibition at 500 µg/disc (Lipomyces lipofer [2]) [mm] | zone of inhibition at 1000 µg/disc (Candida albicans [3]) [mm] | zone of inhibition at 500 µg/disc (Candida albicans [4]) [mm] | zone of inhibition at 1000 µg/disc (Rhodotorula mucilaginosa [5]) [mm] | zone of inhibition at 500 µg/disc (Rhodotorula mucilaginosa [6]) [mm] | zone of inhibition at 1000 µg/disc (Aspergillus flavus [7]) [mm] | zone of inhibition at 500 µg/disc (Aspergillus flavus [8]) [mm] | zone of inhibition at 1000 µg/disc (Aspergillus niger [9]) [mm] | diameter of the inhibition zone (DIZ) (Aspergillus niger [10]) | zone of inhibition at 1000 µg/disc (Penicillium chrysogenum [11]) [mm] | zone of inhibition at 500 µg/disc (Penicillium chrysogenum [12]) [mm] | zone of inhibition at 1000 µg/disc (Streptomyces albus [13]) [mm] | diameter of the inhibition zone (DIZ) (Streptomyces albus [14]) | zone of inhibition at 1000 µg/disc (Bacillus cereus [15]) [mm] | zone of inhibition at 500 µg/disc (Bacillus cereus [16]) [mm] | zone of inhibition at 1000 µg/disc (Bacillus subtilis [17]) [mm] | zone of inhibition at 500 µg/disc (Bacillus subtilis [18]) [mm] | zone of inhibition at 1000 µg/disc (Klebsiella aerogenes [19]) [mm] | zone of inhibition at 500 µg/disc (Klebsiella aerogenes [20]) [mm] | other results
1 | Cc1ccc2nc3[nH]c(=O)[nH]c(=O)c3cc2c1 | 13 | 11 | 10 | 8 | 13 | 9 | 10 | 9 | 11 | inactive | 11 | 10 | 9 | inactive | 13 | 11 | 11 | 9 | 11 | 10 | zone of inhibition at 1000 µg/disc (Pseudomonas aeruginosa [21]): 17 mm; zone of inhibition at 500 µg/disc (Pseudomonas aeruginosa [22]): 16 mm; zone of inhibition at 1000 µg/disc (Escherichia coli [23]): 12 mm; diameter of the inhibition zone (DIZ) (Escherichia coli [24]): inactive; MIC (Bacillus subtilis [25]): 15.6 µg/mL (≈ 68.7 µM); MIC (Klebsiella aerogenes [26]): 7.8 µg/mL (≈ 34.3 µM); MIC (Pseudomonas aeruginosa [27]): 3.9 µg/mL (≈ 17.2 µM); MIC (Escherichia coli [28]): 7.8 µg/mL (≈ 34.3 µM); MIC (Lipomyces lipofer [29]): 15.6 µg/mL (≈ 68.7 µM); MIC (Candida albicans [30]): 15.6 µg/mL (≈ 68.7 µM); MIC (Rhodotorula mucilaginosa [31]): 7.8 µg/mL (≈ 34.3 µM); MIC (Aspergillus flavus [32]): 7.8 µg/mL (≈ 34.3 µM); MIC (Aspergillus niger [33]): 31.2 µg/mL (≈ 137 µM); MIC (Penicillium chrysogenum [34]): 15.6 µg/mL (≈ 68.7 µM); MIC (Streptomyces albus [35]): 62.5 µg/mL (≈ 275 µM); MIC (Bacillus cereus [36]): 7.8 µg/mL (≈ 34.3 µM)
2 | O=c1[nH]c(=O)c2cc3ccccc3nc2[nH]1 | 11 | 9 | 12 | 9 | 11 | 10 | 14 | 11 | 10 | inactive | 13 | 8 | 13 | inactive | 13 | 9 | 11 | 8 | 11 | 8 | zone of inhibition at 1000 µg/disc (Pseudomonas aeruginosa [21]): 14 mm; zone of inhibition at 500 µg/disc (Pseudomonas aeruginosa [22]): 10 mm; zone of inhibition at 1000 µg/disc (Escherichia coli [23]): 13 mm; zone of inhibition at 500 µg/disc (Escherichia coli [24]; NCIM 2065, 24 h, read-out: DIZ): 11 mm; MIC (Bacillus subtilis [25]): 15.6 µg/mL (≈ 73.2 µM); MIC (Klebsiella aerogenes [26]): 31.2 µg/mL (≈ 146 µM); MIC (Pseudomonas aeruginosa [27]): 31.2 µg/mL (≈ 146 µM); MIC (Escherichia coli [28]): 3.9 µg/mL (≈ 18.3 µM); MIC (Lipomyces lipofer [29]): 62.5 µg/mL (≈ 293 µM); MIC (Candida albicans [30]): 15.6 µg/mL (≈ 73.2 µM); MIC (Rhodotorula mucilaginosa [31]): 7.8 µg/mL (≈ 36.6 µM); MIC (Aspergillus flavus [32]): 3.9 µg/mL (≈ 18.3 µM); MIC (Aspergillus niger [33]): 125 µg/mL (≈ 586 µM); MIC (Penicillium chrysogenum [34]): 7.8 µg/mL (≈ 36.6 µM); MIC (Streptomyces albus [35]): 31.2 µg/mL (≈ 146 µM); MIC (Bacillus cereus [36]): 31.2 µg/mL (≈ 146 µM)
